One assay has as its system enzymatic activity. Particulars: cited from earlier work.
Assay [1] deals with human umbilical arterial smooth muscle cells (HUASMC). The assay can be described thus: ECM / collagen-1 deposition in human umbilical arterial smooth muscle cells. The assay is classed as cell-based. To be noted: 0, 25, 50, 100 μM ascorbic acid; p>0.05. On the procedure:
Human lung fibroblasts (WI-38; American Tissue Culture Collection), Human skin fibroblasts (WS-1; American Tissue Culture Collection) were routinely cultured in Dulbecco's modified Eagle medium with 10% fetal bovine serum (FBS), 1% penicillin-streptomycin at 37° C. in a humidified atmosphere of 5% CO2. Commercially available Smooth Muscle Growth Medium-2 (CLONETICS® SmGM®-2) and supplements (SmGM-2 SingleQuots) were used for human umbilical arterial smooth muscle cells (HUASMC; CLONETICS® UASMC-Human Umbilical Artery Smooth Muscle Cells; Lonza CC-2579). Cells were seeded at 50,000 cells/well in 24-well plates and were allowed to attach for 24 hours. […] To induce collagen synthesis, fibroblasts were supplemented with 100 μM L-ascorbic acid phosphate. The HUASMC was supplemented with various concentration of ascorbic acid (0 μM, 25 μM, 50 μM and 100 μM). In some of the experiment commercially available human serum (Lonza, Belgium) was also used as supplement in place of FBS. At the end of culture time points, culture media were collected into separate vials, whereas cell layers were washed twice with Hank's balanced salt solution (HBSS). […] Cell layer and Medium samples were analyzed by SDS-PAGE under nonreducing conditions with Mini-Protean 3 (Bio-Rad Laboratories). […] Collagen bands were quantified by defining each band with the rectangular tool with background subtraction.

As to `OC[C@H]1O[C@@](CO)(O[C@H]2O[C@H](CO)[C@@H](O)[C@H](O)[C@H]2O)[C@@H](O)[C@@H]1O` [Sucrose], the “effect on enzymatic activity” value with enzymatic activity is recorded as “Ineffective”.

For the compound `O=C1O[C@H]([C@@H](O)CO)C(O)=C1O` [ascorbic acid], in assay [1], the “effect of ascorbic acid on ECM deposition” value is listed as “did not affected ECM deposition”.

(Values after patent US10619133B2, “Engineered living tissue substitute” (NATIONAL UNIVERSITY OF IRELAND, GALWAY, priority 2011, dated 2020).)
